{
  "source": "patent US9999672B2",
  "about": "“Pharmaceutical compositions of fumaric acid esters” (XenoPort, Inc., priority 2014, dated 2018)",
  "key": {"[1]": {"assay_type": "physicochemical", "details": "53 h", "experimental": "Approximately 50 mg (N,N-diethylcarbamoyl)methyl methyl (2E)but-2-ene-1,4-dioate powder was spread into a thin layer (˜1 mm) in open quartz containers. The sample was then placed in an ICH2 Photoreactor (Luzchem Research Inc.) with 16 cool white fluorescent lamps (F8T5/CW-8 Watt) installed. The light power was 22.8×10^3 lux with low level of near UV light (320-400 nm) at 2.2 watt/m^2. The sample was taken out after 53 hours to achieve a light exposure of 1.2 million lux hours. The sample solution was prepared at 0.2 mg/mL in diluent (water/acetonitrile/H3PO4 (80/20/0.05 by volume)).\nTo quantify the photodegratation of the (N,N-diethylcarbamoyl)methyl methyl (2E)but-2-ene-1,4-dioate powder, the presence of (N,N-diethylcarbamoyl)methyl (1S,3S,2R,4R)-2-{[(N,N-diethylcarbamoyl)methyl]oxycarbonyl}-3,4-bis(methoxycarbonyl)cyclobutanecarboxylate (“compound (1)”) was quantified. The structure of compound (1) is shown below:\nThe amount (weight percent) of compound (1) in the sample was determined by reverse phase HPLC using a C18 column and a 30-minute gradient method according to Table 1 where Mobile Phase A is water/0.05% H3PO4 and Mobile Phase B is water/acetonitrile/H3PO4 (10/90/0.05 by volume) with UV detection at 210 nm. The amount of compound (1) found was 29.0 wt %."}, "[2]": {"assay_type": "physicochemical", "details": "2.1 h", "experimental": "Approximately 50 mg (N,N-Diethylcarbamoyl)methyl methyl (2E)but-2-ene-1,4-dioate powder was spread into a thin layer in open quartz containers. The sample was then placed in an ICH2 Photoreactor (Luzchem Research Inc.) with 16 near-UV fluorescent lamps (Hitachi FL8BL-B) installed. The near-UV light (320-400 nm) power was 94.2 watt/m^2. The sample was taken out after 2.1 hours to achieve a light exposure of 200 watt hour/m^2. The sample was prepared and analyzed the same way as described in Example 1. The amount of compound (1) found was 10.3 wt %."}, "[3]": {"assay_type": "physicochemical", "details": "53 h, 0.1 mg/mL, pH 4", "experimental": "A quartz flask containing approximately 20 mL of 0.1 mg/mL (N,N-diethylcarbamoyl)methyl methyl (2E)but-2-ene-1,4-dioate in 50 mM pH 4.0 citrate buffer was placed in an ICH2 Photoreactor (Luzchem Research Inc.) with 16 cool white fluorescent lamps (F8T5/CW-8 Watt) installed. The light power was 22.8×10^3 lux with low level of near UV light (320-400 nm) at 2.2 watt/m^2. The sample was taken out after 53 hours to achieve a light exposure of 1.2 million lux hours.\nTo quantify the photodegratation of the (N,N-diethylcarbamoyl)methyl methyl (2E)but-2-ene-1,4-dioate powder, the presence of (N,N-diethylcarbamoyl)methyl methyl (2Z)but-2-ene-1,4-dioate (“compound (2)”) was quantified. The structure for compound (2) is shown below:\nThe sample was analyzed using the same HPLC method as described in Example 1. The amount of compound (2) found was 22.3 wt %."}},
  "note": "Read-outs that look alike come from different tables or passages of the source.",
  "data": [
    {"compound": "CCN(CC)C(=O)COC(=O)/C=C/C(=O)OC", "note": "[(N,N-Diethylcarbamoyl)methyl methyl (2E)but-2-ene-1,4-dioate]", "values": [
      {"measurement": "amount of compound (1) found (photodegradant)", "setting": "[1]", "value": 29.0, "unit": "wt %"},
      {"measurement": "amount of compound (1) found (photodegradant)", "setting": "[2]", "value": 10.3, "unit": "wt %"},
      {"measurement": "amount of compound (2) found (2Z isomer photodegradant)", "setting": "[3]", "value": 22.3, "unit": "wt %"}
    ]}
  ]
}
